Assay results from patent US10660789B2, “1,4-dihydropyridine derivatives with HSP modulating activity” (Richter Gedeon NYRT., priority 2011, dated 2020).
Structures can show the parent of a compound that is named as a salt.

Columns and labels:
Hsp25 promoter = experiment: Hsp25 promoter-GFP reporter in SHSY5Y cells, flow cytometry; format: cell-based, human; conditions: FIG. 2
Protocol: (§1) The Hsp co-inducing effect of the compounds on stress response was tested on B16 mouse melanoma and SHSY5Y human neuroblastoma cell lines stably transfected with Hsp promoter probing plasmids. This kind of promoter probing, using the promoter region of a given gene conjugated with fluorescent protein is used as a best and fastest test system for finding drugs which modulate the activity of the gene followed by the given promoter (Wyshocka et al., Mol. Cel. Biochem. 215:153-156, 2000).
(§2) Reporter plasmids, containing the Hsp70 and/or Hsp25 promoter conjugated to either YFP or GFP (yellow or green fluorescent protein), were stably transfected into the cells and the expression of YFP or GFP was followed by flow cytometry. Cells were either kept at 37° C. or exposed to heat shock at 42° C. for 1 hour followed by a 16 hour recovery period at 37° C. in the presence or absence of different concentrations of the test compound. After recovery the expression of YFP or GFP which is in straight correlation with the promoter activity of Hsp70 or Hsp27 genes was followed by measuring the fluorescence intensity of the cells by flow cytometry. Fluorescence intensity is in straight correlation with the amount of fluorescent protein (GFP or YFP) produced under the control of hsp promoter. The mean fluorescence intensity of YFP or GFP produced is shown as “Hsp promoter activity”.
The fluorescence intensity of GFP and YFP […].
Selectivity of the Hsp25 co-inducing activity of compound of Ex. 11 is shown on FIG. 3. […] The fluorescence intensity of GFP produced as a result of Hsp25 promoter activity was measured by flow cytometry.
(§3) Cells were homogenously distributed on 6-well plates in 1×10^5 cells/well density. B16-pHsp25-GFP and B16-pHsp70-YFP melanoma cells were grown in RPMI-1640 medium supplemented with 10% Fetal bovine serum (FBS), penicillin (200 units/ml), streptomycin (200 μg/ml) and 2 mM L-Glutamine. […] The changes in cells' fluorescence were detected using BD FACSCalibur flow cytometer.

Hsp70 promoter = experiment: Hsp70 promoter-YFP reporter in SHSY5Y cells, flow cytometry; format: cell-based, human
Protocol: as §1, §2
The fluorescence intensity of YFP produced as a result of Hsp70 promoter activity was measured by flow cytometry.
as §3

SKH-1 hairless mice = experiment: UVB induced skin edema in SKH-1 hairless mice; format: in vivo, mouse
Protocol: To evaluate the effects of systemic administration of Ex. 23 on UVB induced edema 16 SKH-1 hairless mice were divided into two groups of 8 animals each. Group 1 mice (Control) were exposed to 230 mJ/cm^2 UVB consecutively for 2 days (a total cumulative UVB dose of 460 mJ/cm^2), which evoked edema as described by Athar et al. (Tox. Appl. Pharmacol. 195: 370-378, 2004). Group 2 mice received Ex 23. (10 mg/kg) intraperitoneally 30 min before the first UV treatment. The administration of the compound Ex. 23 was repeated 24 and 48 hours later. UVB-induced skin edema was monitored by measuring the increase in dorsal skin thickness using an ultrasound skin scanner (22 MHz).

B16F10 melanoma cells = experiment: Lysosomal destabilization, FITC-conjugated dextran fluorescence; format: cell-based, mouse
Source text: Emerging evidence argues that both classic apoptosis pathways and lysosomal death pathways must be suppressed for effective development and progression of cancer. Tumor invasion and metastasis are associated with altered lysosomal trafficking and increased expression of the lysosomal proteases termed cathepsins. […] Normal cells respond to death stimuli by undergoing caspase-dependent apoptosis, the best characterized form of programmed cell death. In contrast, cancer cells frequently escape spontaneous and therapy-induced caspase activation due to acquired mutations in the apoptotic machinery. Apoptosis-resistant cancer cells are, however, not completely resistant to cell death, but can die via alternative cell death pathways often involving non-caspase proteases such as lysosomal cathepsins. Therefore, development of novel anticancer drugs that can trigger alternative death pathways that are independent of commonly mutated apoptosis-regulating genes is of great importance. […] Lysosomal destabilization could be followed by measuring the fluorescence intensity of the pH sensitive FITC-conjugated dextran. Lysosomal pH was determined by allowing the B16F10 melanoma cells to endocytose different amount of FITC-conjugated dextran (40 kDa) (from 10 mg/ml stock) for 24 h. […] Fluorescence was measured by plate reader using an excitation and emission wavelengths of 485 nm and 538 nm respectively.

Hsp27 = experiment: Other in vitro effects, Hsp27 (Table 3); format: cell-based; parameters: key: +: co-inducing activity; −: silencing activity; 0: with the experimental methods applied no other HSP modulating effects could be identified
Protocol: as §2

For `COC(=O)C1=C(CCN(C)C)N(C)C(CCN(C)C)=C(C(=O)OC)C1c1ccc(C(F)(F)F)cc1` [Example 23, Dimethyl 4-(4-trifuoromethylphenyl)-2,6-bis-(2-dimethylaminoethyl)-1-methyl-1,4-dihydropyridine-3,5-dicarboxylate dihydrochloride], the “effect on the expression of Hsp25” value (Hsp25 promoter) was “no effect on the expression of Hsp25”, the “induction of Hsp70 gene activity” value (Hsp70 promoter; 20 μM, SHSY5Y cells at 42° C., FIG. 1) was “approximately 20 times” and the “activity of the promoter of the hsp70 gene at 37° C.” value (Hsp70 promoter; SHSY5Y cells, 37° C., no heat stress) was “does not affect the activity of the promoter of the hsp70 gene at 37 °C”. For the same molecule, the “increase in HSP70 expression” value (Hsp70 promoter; SHSY5Y cells, relative to cells treated at 42° C. without the compound, FIG. 2) was 23 fold, the “UVB induced skin edema (increase in skin thickness)” value (SKH-1 hairless mice; 10 mg/kg i.p. 30 min before first UV, repeated 24 and 48 hours later, FIG. 7) was “substantially protected against edema formation” and the In vivo efficacy (SKH-1 hairless mice; model in which efficacy was shown) was “UVB protection”. For the same molecule, the “Other in vitro effects (lysosomes)” value (B16F10 melanoma cells) was “lysosome destabilization”, the “fluorescence intensity of FITC-conjugated dextran (lysosomal pH, lysosomal destabilization)” value (B16F10 melanoma cells; Ex. 23 5 μM for 6 hours, compared to Siramesine (20 μm), FIG. 9) was “significantly higher fluorescence intensity” and the “Other in vitro effects: Hsp27” value (Hsp27) was “Hsp27 0”.
